These results are taken from ChEMBL document CHEMBL1201862, “PubChem BioAssay data set” (2004).

Among the test systems are A498; ACHN; CAKI-1; EKVX; HCT-15; HT-29; K562; KM-20L2; NCI-H226; NCI-H522; SK-MEL-28; SK-OV-3; SW-620; HCC 2998; HL-60; SF-295; UACC-257.
Common to all, as to assay: NCI-60 cell line screen, 48 h

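Dose response: 5 concentrations. Exposure: 48 h. Format: 96-well plates. Endpoint: linear interpolation; highest concentration if not reached. GI50 = concentration required for 50% inhibition of growth.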 Activity calls are given as the source filed them. Cut-off read from the data, not from the text of the source: active = GI50 up to about 1.1 µM and inactive = higher.

In the case of `CCN(CC)c1oc(N(CC)CC)c(C(=O)Nc2ccccn2)c(=O)c1C(C)=O`, the GI50 with A498 is > 100 µM (inactive); with ACHN, > 100 µM (inactive); with CAKI-1, > 100 µM (inactive); in the test on EKVX, > 100 µM (inactive); in the test on HCT-15, > 100 µM; with HT-29, > 100 µM (inactive). Further, the GI50 in the test with K562 is > 100 µM (inactive); with KM-20L2, > 10 µM (inactive); in the test on NCI-H226, > 100 µM (inactive); with NCI-H522, > 100 µM (inactive); with SK-MEL-28, > 100 µM (inactive); in the test on SK-OV-3, > 100 µM (inactive). In the test with SW-620, the GI50 was > 100 µM (inactive).

For the compound `O=C(O)C12C3C4C1C1C2C3C1(Br)C41OCCO1` (stereo not given), the GI50 with A498, in the test on ACHN, in the test on EKVX, in the test on HCC 2998, in the test on HL-60 and in the test on HT-29 was > 100 µM (inactive) throughout. The GI50 in the test with K562, with KM-20L2, in the test on NCI-H522, with SF-295, with SK-MEL-28 and with SK-OV-3 was > 100 µM (inactive) in each case. Also, the GI50 in the test with SW-620 and in the test with UACC-257 was > 100 µM (inactive) in each case.

With `O=S(=O)(c1ccccc1)n1cc(C[P+](c2ccccc2)(c2ccccc2)c2ccccc2)c2ccccc21`, the GI50 is 15.6 µM (inactive) with A498; 15.3 µM (inactive) with ACHN; 13.9 µM (inactive) in the test on CAKI-1; 3.33 µM (inactive) with EKVX; 3.36 µM (inactive) with HCC 2998; 16.6 µM in the test with HCT-15. Moreover, the GI50 is 2.04 µM (inactive) with HL-60; 3.4 µM (inactive) in the test on HT-29; 2.65 µM (inactive) in the test on K562; 4.89 µM (inactive) with KM-20L2; 4.81 µM (inactive) in the test on NCI-H226; 2.36 µM (inactive) with NCI-H522. For the same compound, the GI50 with SF-295 was 12 µM (inactive); in the test on SK-MEL-28, 2.7 µM (inactive); in the test on SK-OV-3, 2.5 µM (inactive); with SW-620 it was 4.59 µM (inactive).

Turning to `CCCc1nc(N)nc(C(=O)Nc2cccc(C(F)(F)F)c2)c1CC`, the GI50 with A498 is > 100 µM (inactive); in the test on ACHN, > 100 µM (inactive); in the test on CAKI-1, > 100 µM (inactive); in the test with EKVX, > 100 µM (inactive); in the test on HCC 2998 it was > 100 µM (inactive); in the test with HCT-15 it was > 100 µM. The GI50 with HL-60, with HT-29, in the test on K562, with KM-20L2, with NCI-H226 and with SF-295 was > 100 µM (inactive) in each case. The GI50 with SK-MEL-28, with SW-620 and in the test on UACC-257 was > 100 µM (inactive) each time.

In the case of `CC(C)C(Nc1c2ccccc2[n+](C)c2ccccc12)C(=O)O` (stereo not given), the GI50 in the test with A498 is > 100 µM (inactive); with ACHN, > 100 µM (inactive); in the test on CAKI-1 it was > 100 µM (inactive); in the test with EKVX, > 100 µM (inactive); in the test on HCC 2998, > 100 µM (inactive); in the test with HCT-15, > 100 µM. The GI50 was 99.5 µM (inactive) in the test on HL-60; > 100 µM (inactive) in the test on HT-29; > 100 µM (inactive) in the test on K562; > 100 µM (inactive) in the test with KM-20L2; > 100 µM (inactive) with NCI-H226; 1.3 µM (inactive) with NCI-H522. Besides, the GI50 in the test with SF-295, in the test on SK-OV-3, with SW-620 and in the test with UACC-257 was > 100 µM (inactive) throughout.

Take `COc1cc(OC)c(/C=C2\N=C(C)N(Nc3nnc(NN4C(=O)/C(=C/c5c(OC)cc(OC)cc5OC)N=C4C)c4ccccc34)C2=O)c(OC)c1`: the GI50 in the test with A498 was > 100 µM (inactive); in the test with ACHN it was > 100 µM (inactive); in the test on EKVX, 94.4 µM (inactive); in the test with HCT-15, > 100 µM; with HL-60, > 100 µM (inactive); in the test on HT-29 it was > 100 µM (inactive). Besides, the GI50 was > 100 µM (inactive) in the test on K562; > 100 µM (inactive) with KM-20L2; > 100 µM (inactive) with NCI-H226; > 100 µM (inactive) in the test with NCI-H522; 93.3 µM (inactive) with SF-295; > 100 µM (inactive) in the test with SK-MEL-28. Moreover, the GI50 in the test on SW-620 and with UACC-257 was > 100 µM (inactive) throughout.

On to `CC(=O)c1ccccc1NC(=O)C(=O)C(C(=O)c1ccc2ccccc2c1)C1OC(=O)c2ccccc21` (stereo not given), for which the GI50 with A498 is 15.2 µM (inactive); in the test on ACHN, 31.8 µM (inactive); with CAKI-1, 10.6 µM (inactive); in the test on EKVX it was 97.9 µM (inactive); in the test with HCC 2998 it was 4.72 µM (inactive); in the test with HCT-15, 13.7 µM. The GI50 is 9.91 µM (inactive) with HL-60; 34.8 µM (inactive) in the test with HT-29; 9.04 µM (inactive) with K562; 32.2 µM (inactive) in the test with KM-20L2; 2.26 µM (inactive) in the test with NCI-H226; 10.7 µM (inactive) in the test with NCI-H522. Also, the GI50 was 11.3 µM (inactive) with SK-MEL-28, 29.2 µM (inactive) in the test with SK-OV-3, 7.83 µM (inactive) with SW-620 and 13.8 µM (inactive) with UACC-257.

Regarding `CCc1nc(N)nc(C(=O)NCCNC(=O)c2nc(N)nc(CC)c2C)c1C`, the GI50 in the test on A498 was > 100 µM (inactive); in the test with ACHN, > 100 µM (inactive); in the test on CAKI-1, > 100 µM (inactive); with EKVX it was > 100 µM (inactive); with HCC 2998, > 100 µM (inactive); in the test on HCT-15 it was > 100 µM. Further, the GI50 in the test on HL-60, with HT-29, with K562, in the test with KM-20L2, in the test with NCI-H226 and with SF-295 was > 100 µM (inactive) in each case. In addition, the GI50 in the test on SK-MEL-28, in the test with SW-620 and in the test with UACC-257 was > 100 µM (inactive) each time.

Turning to `NC(=S)N1N=C2c3ccccc3CC[C@H]2[C@@H]1c1cccs1`, the GI50 in the test on A498 is 60.3 µM (inactive); with ACHN it was 49.2 µM (inactive); with EKVX it was 38.4 µM (inactive); in the test on HCC 2998, 37.4 µM (inactive); with HCT-15, 21.3 µM; in the test with HL-60, 16.1 µM (inactive). The GI50 with HT-29 was 24.1 µM (inactive); with K562 it was 7.69 µM (inactive); with KM-20L2, 23.9 µM (inactive); in the test with NCI-H226, 29 µM (inactive); in the test with NCI-H522, 16.8 µM (inactive); with SF-295 it was 15.8 µM (inactive). Besides, the GI50 is 44.3 µM (inactive) in the test with SK-MEL-28, 37.7 µM (inactive) with SK-OV-3, 38.7 µM (inactive) in the test with SW-620 and 28 µM (inactive) with UACC-257.
